Test results as given in ChEMBL document CHEMBL4382216, “Asymmetric synthesis and biological evaluation of imidazole- and oxazole-containing synthetic lipoxin A4 mimetics (sLXms)” (Eur J Med Chem, 2019).

How the values were obtained:
Format in all cases: cell-based
[1] = molecular target: T1, N-formyl peptide receptor 2 (Homo sapiens) (UniProt P25090); assay: Agonist activity at ALX/FPR2 in human THP1 cells harboring NF-kB-Luc assessed as inhibition of LPS-induced NFkB signalling activation by measuring NF-kB activation level at 10^-12 M pretreated for 30 mins followed by LPS stimulation for 24 hrs by luciferase reporter gene assay; design: scale not given: the % may be the effect or the level left
T1 sequence (whole entry): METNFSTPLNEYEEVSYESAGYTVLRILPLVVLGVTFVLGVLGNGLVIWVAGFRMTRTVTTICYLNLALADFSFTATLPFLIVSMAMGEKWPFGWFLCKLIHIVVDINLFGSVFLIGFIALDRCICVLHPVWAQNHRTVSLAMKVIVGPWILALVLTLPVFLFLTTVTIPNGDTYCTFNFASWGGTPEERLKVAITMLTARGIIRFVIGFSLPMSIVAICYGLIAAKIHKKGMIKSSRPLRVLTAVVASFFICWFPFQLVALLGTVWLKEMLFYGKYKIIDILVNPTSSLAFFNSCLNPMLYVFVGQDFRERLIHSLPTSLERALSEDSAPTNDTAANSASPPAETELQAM

[2] = molecular target: T1, N-formyl peptide receptor 2 (Homo sapiens); assay: Agonist activity at ALX/FPR2 in human THP1 cells harboring NF-kB-Luc assessed as inhibition of LPS-induced NFkB signalling activation by measuring NF-kB activation level at 10^-7 M pretreated for 30 mins followed by LPS stimulation for 24 hrs by luciferase reporter gene assay; design: scale not given: the % may be the effect or the level left
[3] = molecular target: T1, N-formyl peptide receptor 2 (Homo sapiens); assay: Agonist activity at ALX/FPR2 in human THP1 cells harboring NF-kB-Luc assessed as inhibition of LPS-induced NFkB signalling activation by measuring NF-kB activation level at 10^-6 M pretreated for 30 mins followed by LPS stimulation for 24 hrs by luciferase reporter gene assay; design: scale not given: the % may be the effect or the level left
Homo sapiens = organism: Homo sapiens; assay: Activation of Luc-fused NFkB (unknown origin) expressed in non-stimulated human THP1 cells assessed as relative luminescence unit at 10^-9 M after 24 hrs by luciferase reporter gene assay (reference value: 100%)
[4] = molecular target: T1, N-formyl peptide receptor 2 (Homo sapiens); assay: Agonist activity at ALX/FPR2 in human THP1 cells harboring NF-kB-Luc assessed as inhibition of LPS-induced NFkB signalling activation by measuring IL-1beta secretion at 10^-11 M pretreated for 30 mins followed by LPS stimulation for 24 hrs by electrochemiluminescence assay; design: scale not given: the % may be the effect or the level left
[5] = molecular target: T1, N-formyl peptide receptor 2 (Homo sapiens); assay: Agonist activity at ALX/FPR2 in human THP1 cells harboring NF-kB-Luc assessed as inhibition of LPS-induced NFkB signalling activation by measuring IL-1beta secretion at 10^-9 M pretreated for 30 mins followed by LPS stimulation for 24 hrs by electrochemiluminescence assay; design: scale not given: the % may be the effect or the level left
[6] = molecular target: T1, N-formyl peptide receptor 2 (Homo sapiens); assay: Agonist activity at ALX/FPR2 in human THP1 cells harboring NF-kB-Luc assessed as inhibition of LPS-induced NFkB signalling activation by measuring IL-1beta secretion at 10^-7 M pretreated for 30 mins followed by LPS stimulation for 24 hrs by electrochemiluminescence assay; design: scale not given: the % may be the effect or the level left
[7] = molecular target: T1, N-formyl peptide receptor 2 (Homo sapiens); assay: Agonist activity at ALX/FPR2 in human THP1 cells harboring NF-kB-Luc assessed as inhibition of LPS-induced NFkB signalling activation by measuring IL-6 secretion at 10^-11 M pretreated for 30 mins followed by LPS stimulation for 24 hrs by electrochemiluminescence assay; design: scale not given: the % may be the effect or the level left
[8] = molecular target: T1, N-formyl peptide receptor 2 (Homo sapiens); assay: Agonist activity at ALX/FPR2 in human THP1 cells harboring NF-kB-Luc assessed as inhibition of LPS-induced NFkB signalling activation by measuring IL-6 secretion at 10^-9 M pretreated for 30 mins followed by LPS stimulation for 24 hrs by electrochemiluminescence assay; design: scale not given: the % may be the effect or the level left
[9] = molecular target: T1, N-formyl peptide receptor 2 (Homo sapiens); assay: Agonist activity at ALX/FPR2 in human THP1 cells harboring NF-kB-Luc assessed as inhibition of LPS-induced NFkB signalling activation by measuring IL-6 secretion at 10^-7 M pretreated for 30 mins followed by LPS stimulation for 24 hrs by electrochemiluminescence assay; design: scale not given: the % may be the effect or the level left
[10] = molecular target: T1, N-formyl peptide receptor 2 (Homo sapiens); assay: Agonist activity at ALX/FPR2 in human THP1 cells harboring NF-kB-Luc assessed as inhibition of LPS-induced NFkB signalling activation by measuring IL-12p70 secretion at 10^-11 M pretreated for 30 mins followed by LPS stimulation for 24 hrs by electrochemiluminescence assay; design: scale not given: the % may be the effect or the level left
[11] = molecular target: T1, N-formyl peptide receptor 2 (Homo sapiens); assay: Agonist activity at ALX/FPR2 in human THP1 cells harboring NF-kB-Luc assessed as inhibition of LPS-induced NFkB signalling activation by measuring IL-12p70 secretion at 10^-9 M pretreated for 30 mins followed by LPS stimulation for 24 hrs by electrochemiluminescence assay; design: scale not given: the % may be the effect or the level left
[12] = molecular target: T1, N-formyl peptide receptor 2 (Homo sapiens); assay: Agonist activity at ALX/FPR2 in human THP1 cells harboring NF-kB-Luc assessed as inhibition of LPS-induced NFkB signalling activation by measuring IL-12p70 secretion at 10^-7 M pretreated for 30 mins followed by LPS stimulation for 24 hrs by electrochemiluminescence assay; design: scale not given: the % may be the effect or the level left
[13] = molecular target: T1, N-formyl peptide receptor 2 (Homo sapiens); assay: Agonist activity at ALX/FPR2 in human THP1 cells harboring NF-kB-Luc assessed as inhibition of LPS-induced NFkB signalling activation by measuring IFNgamma secretion at 10^-9 M pretreated for 30 mins followed by LPS stimulation for 24 hrs by electrochemiluminescence assay; design: scale not given: the % may be the effect or the level left
[14] = molecular target: T1, N-formyl peptide receptor 2 (Homo sapiens); assay: Agonist activity at ALX/FPR2 in human THP1 cells harboring NF-kB-Luc assessed as inhibition of LPS-induced NFkB signalling activation by measuring IFNgamma secretion at 10^-7 M pretreated for 30 mins followed by LPS stimulation for 24 hrs by electrochemiluminescence assay; design: scale not given: the % may be the effect or the level left
[15] = molecular target: T2, N-formyl peptide receptor 2 (Homo sapiens, UniProt P25090); assay: Agonist activity at ALX/FPR2 in human THP1 cells harboring NF-kB-Luc assessed as inhibition of LPS-induced NFkB signalling activation by measuring reduction in IFNgamma secretion pretreated for 30 mins followed by LPS stimulation for 24 hrs by electrochemiluminescence assay; conditions: read-out: IC50
T2 sequence (P25090 whole entry): T1 sequence (whole entry)

[16] = molecular target: T2, N-formyl peptide receptor 2; assay: Agonist activity at ALX/FPR2 in human THP1 cells harboring NF-kB-Luc assessed as inhibition of LPS-induced NFkB signalling activation by measuring reduction in IL-12p70 secretion pretreated for 30 mins followed by LPS stimulation for 24 hrs by electrochemiluminescence assay; conditions: read-out: IC50
[17] = molecular target: T2, N-formyl peptide receptor 2; assay: Agonist activity at ALX/FPR2 in human THP1 cells harboring NF-kB-Luc assessed as inhibition of LPS-induced NFkB signalling activation by measuring reduction in TNFalpha secretion pretreated for 30 mins followed by LPS stimulation for 24 hrs by electrochemiluminescence assay; conditions: read-out: IC50
[18] = molecular target: T2, N-formyl peptide receptor 2; assay: Agonist activity at ALX/FPR2 in human THP1 cells harboring NF-kB-Luc assessed as inhibition of LPS-induced NFkB signalling activation by measuring reduction in IL-1beta secretion pretreated for 30 mins followed by LPS stimulation for 24 hrs by electrochemiluminescence assay; conditions: read-out: IC50
[19] = molecular target: T2, N-formyl peptide receptor 2; assay: Agonist activity at ALX/FPR2 in human THP1 cells harboring NF-kB-Luc assessed as inhibition of LPS-induced NFkB signalling activation by measuring reduction in IL-6 secretion pretreated for 30 mins followed by LPS stimulation for 24 hrs by electrochemiluminescence assay; conditions: read-out: IC50

Compound	Activity [1] [%]	Activity [2] [%]	Activity [3] [%]	Activity (Homo sapiens) [%]	Activity [4] [%]	Activity [5] [%]	Activity [6] [%]	Activity [7] [%]	Activity [8] [%]	Activity [9] [%]	Activity [10] [%]	Activity [11] [%]	Activity [12] [%]	Activity [13] [%]	Activity [14] [%]	IC50 [15] [nM]	IC50 [16] [nM]	IC50 [17] [nM]	IC50 [18] [nM]	IC50 [19] [nM]
CCCCC[C@H](O)c1nc(-c2ccccc2)n(-c2ccccc2)c1/C=C/[C@@H](O)[C@@H](O)CCCC(=O)OC	88.2	82.2	90.2	1.6	50.3	57.8	67.4	69	77.3	64.9	65.1	61.4	138	68.4	129	0.7	1	4.1	1	12
CCCCC[C@H](O)/C=C/C=C\C=C\C=C\[C@@H](O)[C@@H](O)CCCC(=O)O [LIPOXIN A4]	95.3	76	93.3	1.5	6.6	4.3	5.7	2.6	1.1	1.7	25.7	37.1	29.6	36.1	32	22.2	11.8	7.7	1.8	1.7
CCCCC[C@@H](O)c1nc(-c2ccccc2)n(-c2ccccc2)c1/C=C/[C@@H](O)[C@@H](O)CCCC(=O)OC	99.5	88.2	88.5	1.5	49.6	50.3	57.7	58.7	64.4	83.7	67.7	68.3	86.2	71.4	95	18.5	10	7.1	1.4	0.5
